Key:
[1] = Dissolution of CBD in ethanol:water mixtures; format: physicochemical
Description: The protocol of Example 9 was followed with the 60 mg initially dissolved in ethanol only. […] The remaining five portions were diluted to an ethanol to water ratio of 7:3, 6:4, 5:5, 4:6 or 3:7. The portions were then filtered to retrieve the cross-linked polymer.
At 50:50 EtOH:H2O, CBD dissolves provided that EtOH is added first then H2O. At 45:56 EtOH:H2O, the 2 mg/mL CBD solution is cloudy. […] Slowly adding H2O to the CBD, EtOH, polymer mixture results in very high capture of 98% at a 3:7 EtOH:H2O.
The portions were filtered by pipette filtration to retrieve the cross-linked polymer. The cross-linked polymer was then flushed with DMSO. […] Ten percent of the CBD is not in solution when CBD in 3:7 EtOH:H2O is used. The calculated cyclodextrin capacity within the polymer is 8:1 polymer:CBD.

[2] = Capture and release of target molecule by cross-linked polymer (HDI-linked cyclodextrin), slurry protocol; format: physicochemical; conditions: Example 9; 2 mg/mL in 1:1 ethanol:water, 10:1
Description: A mass of CBD was dissolved in ethanol to form a stock solution. A reference sample of the stock solution was diluted with ethanol to obtain a target CBD or other target molecule concentration for a reference measurement. A reaction sample was taken from the remaining stock solution. A cross-linked polysaccharide was combined with the reaction sample in a ratio relative to the CBD or other target molecule concentration present in the reaction sample (by mass) as specified in Examples. The cross-linked polymer is HDI-linked cyclodextrin prepared with a ratio of 8:1 HDI to cyclodextrin.
Water is combined with the reaction sample until the reaction sample reaches a target CBD or other target molecule concentration, and a target ethanol to water ratio. The reaction mixture including the water is filtered at a cutoff size of between 75 μm to 4,000 μm aperture size, or exposed to a magnetic field with a neodymium magnet through the wall of a flask, to retrieve the cross-linked polymer bound with CBD or other target molecule concentration. Once retrieved, the cross-linked polymer is flushed with a dissociation fluid for dissolving the target molecule.
Ten milligrams of CBD were dissolved in a 10 mL mixture of 1:1 ethanol to water to produce a reaction mixture with a CBD concentration of 1 mg/mL. A 1 mL aliquot was then taken from the reaction mixture as a reference sample (t=0). […]

**Q.** What does the source list for `C=C(C)[C@@H]1CCC(C)=C[C@H]1c1c(O)cc(CCCCC)cc1O` [CBD, cannabidiol]?
**A.** dissolution of CBD ([1]; 6 mg/mL in 1:1 EtOH:H2O, sonication and heating): did not dissolve; dissolution of CBD ([1]; 40:60 EtOH:H2O, 2 mg/mL): not fully dissolved; dissolution of CBD ([1]; 45:56 EtOH:H2O, 2 mg/mL): cloudy; dissolution of CBD ([1]; 50:50 EtOH:H2O, 2 mg/mL, EtOH added first then H2O): dissolves; CBD not in solution ([1]; CBD in 3:7 EtOH:H2O, Example 17): Ten; time to capture plateau [2]: about 5 minutes

— patent publication US20240150270A1, “METHOD FOR SELECTIVE RECOVERY OF LIPOPHILIC COMPOUNDS” (priority 2021, published 2024)
